The values that follow come from patent US11273126B2, “Amorphous dispersion of cyclopropanecarboxylic acid (5-{5-[N′-(2-chloro-6-methylbenzoyl) hydrazinocarbonyl]-2-methyl-phenylethynyl}-pyridin-2-yl) amide” (SUN PHARMA ADVANCED RESEARCH COMPANY LIMITED, priority 2017, dated 2022).

A short description of this series: Oral administration to dogs, plasma levels of compound of formula I (bioavailability). Format: in vivo. The settings on record: dog, plasma level of compound of formula I. On the procedure: Suitable amount of amorphous dispersion of Example I and the crystalline form of compound of formula I suspended in a vehicle were administered orally to dogs. Blood samples were withdrawn at various time intervals and the plasma levels of compound of formula I were recorded. The Cmax, AUC0 to 1 and AUC0-∞, in plasma are tabulated below.

On to `Cc1ccc(C(=O)NNC(=O)c2c(C)cccc2Cl)cc1C#Cc1ccc(NC(=O)C2CC2)nc1` [Compound of formula I in a vehicle, cyclopropanecarboxylic acid (5-{5-[N′-(2-chloro-6-methylbenzoyl) hydrazinocarbonyl]-2-methyl-phenylethynyl}-pyridin-2-yl)amide], for which the AUC(0-inf) was determined as 388 ng·h/mL, the AUC(0-t) came out at 290 ng·h/mL and the highest level (Cmax) was 41 ng/mL.
